According to patent US12570612B2, “Substituted nitrogen heterocyclic compound and anesthetic effect thereof” (priority 2019, dated 2026):
Values joined by “and” are separate entries in the source; they are usually repeats but may differ in a detail not shown here. Equal entries are not always repeated. “Also recorded” adds a separate entry of the source.

System: Sprague-Dawley rats
Experiment: animal or person
Conditions: LORR in rats, tail vein; brackets = 95% confidence limit
Experimental: Adult male Sprague-Dawley rats (250-300 g) were selected for the experiment. […] The anesthesia effects of the compounds were assessed in rats using a LORR assay and a period >30 s was considered as an indicator of general anesthesia.

Structure (SMILES) | ED50
COC(=O)C1=C(OC(=O)c2ccnn2[C@H](C)c2ccccc2)CCC1 [Compound A20] | C (C indicates that the measured ED50 is in the range of 1.00-2.00 mg/kg (excluding 1.00 mg/kg, including 2.00 mg/kg))
COC1CC(OC(=O)c2c(F)cnn2C(C)c2ccccc2)C1 (stereo not drawn) [Compound A76] | A (A indicates that the measured ED50 is in the range of 0.04-0.50 mg/kg (including 0.04 and 0.50 mg/kg))

Same assay, conditions: Rattus norvegicus

Structure (SMILES) | ED50 [mg/kg]
C[C@H](c1ccccc1)n1nccc1C(=O)OC1CCC1 [Compound A4] | 1 to 2
C=C=CC(C)(C)OC(=O)c1ccnn1[C@H](C)c1ccccc1 [Compound A14] | 1 to 2
C[C@H](c1ccccc1)n1nccc1C(=O)OC1(C)COC1 [Compound A30] | 1 to 2
C=C=CC1(OC(=O)c2cc(F)nn2[C@H](C)c2ccccc2)COC1 [Compound A52] | 0.5 to 1
CC(=O)C1=C(OC(=O)c2c(F)cnn2[C@H](C)c2ccccc2)CCC1 [Compound A90] | 1 to 2

Same assay, conditions: rats

Structure (SMILES) | Approximate therapeutic index | Minimal lethal dose [mg/kg]
COC(=O)C1=C(OC(=O)c2ccnn2[C@H](C)c2ccccc2)CCC1 [Compound A20] | >10 | >12
C[C@H](c1ccccc1)n1nccc1C(=O)OC1CCC1 [Compound A4] | >11 | >15
C=C=CC(C)(C)OC(=O)c1ccnn1[C@H](C)c1ccccc1 [Compound A14] | >8 | >11
C[C@H](c1ccccc1)n1nccc1C(=O)OC1(C)COC1 [Compound A30] | >6 | >7
C=C=CC1(OC(=O)c2cc(F)nn2[C@H](C)c2ccccc2)COC1 [Compound A52] | >16 | >11
CC(=O)C1=C(OC(=O)c2c(F)cnn2[C@H](C)c2ccccc2)CCC1 [Compound A90] | >5 | >10
COC1CC(OC(=O)c2c(F)cnn2C(C)c2ccccc2)C1 (stereo not drawn) [Compound A76] | >10 | >2

System: Sprague-Dawley rats
Experiment: Pharmacological characteristics at equivalent doses (2ED50), Group A compounds
Format: in vivo
Design: Sedation duration: unit not given here
Conditions: 2ED50, tail vein

Structure (SMILES) | Onset time [min] | Righting reflex duration [min] | Sedation duration
COC(=O)C1=C(OC(=O)c2ccnn2[C@H](C)c2ccccc2)CCC1 [Compound A20] | 0.67 ± 0.14 | 1.15 ± 0.66 | 7.05 ± 3.95
C[C@H](c1ccccc1)n1nccc1C(=O)OC1CCC1 [Compound A4] | 0.52 ± 0.21 | 1.39 ± 0.66 | –
C=C=CC(C)(C)OC(=O)c1ccnn1[C@H](C)c1ccccc1 [Compound A14] | 0.78 ± 0.22 | 1.20 ± 0.72 | –
C[C@H](c1ccccc1)n1nccc1C(=O)OC1(C)COC1 [Compound A30] | 0.3 ± 0.22 | 2.6 ± 0.83 | –
C=C=CC1(OC(=O)c2cc(F)nn2[C@H](C)c2ccccc2)COC1 [Compound A52] | 0.50 ± 0.08 | 2.01 ± 1.00 | –
CC(=O)C1=C(OC(=O)c2c(F)cnn2[C@H](C)c2ccccc2)CCC1 [Compound A90] | 0.51 ± 0.07 | 5.21 ± 1.45 | –
COC1CC(OC(=O)c2c(F)cnn2C(C)c2ccccc2)C1 (stereo not drawn) [Compound A76] | 0.36 ± 0.12 | 2.29 ± 0.56 | 9.08 ± 2.16

Same assay, conditions: 2ED50, tail vein, (animals affected/animals)

Structure (SMILES) | Types and incidence of adverse reactions
COC(=O)C1=C(OC(=O)c2ccnn2[C@H](C)c2ccccc2)CCC1 [Compound A20] | Red urine(8/8), Hindlimb; also recorded: rigidity(3/8), General; also recorded: Tremor(1/8)
C[C@H](c1ccccc1)n1nccc1C(=O)OC1CCC1 [Compound A4] | Red urine(6/6),; also recorded: Euphoria(5/6), Hindlimb; also recorded: rigidity(1/6)
C=C=CC(C)(C)OC(=O)c1ccnn1[C@H](C)c1ccccc1 [Compound A14] | Red urine(5/5), Four limbs; also recorded: Tremor(1/5)
C[C@H](c1ccccc1)n1nccc1C(=O)OC1(C)COC1 [Compound A30] | Red and urine(8/8), Euphoria(3/8), and Tremor(1/8)
C=C=CC1(OC(=O)c2cc(F)nn2[C@H](C)c2ccccc2)COC1 [Compound A52] | Red and urine(8/8), Euphoria(3/8), and broken-winded(1/8)
CC(=O)C1=C(OC(=O)c2c(F)cnn2[C@H](C)c2ccccc2)CCC1 [Compound A90] | Red and urine(8/8), Convulsions(2/ and 8), Nod(1/8)
COC1CC(OC(=O)c2c(F)cnn2C(C)c2ccccc2)C1 (stereo not drawn) [Compound A76] | Red urine(8/8),; also recorded: Tremor(2/8),; also recorded: Euphoria(1/8)

System: H295R cell line
Experiment: Adrenocortical function in vitro test: secretion of cortisol and corticosterone, Group A compounds
Format: cell-based
Conditions: H295 cells

Structure (SMILES) | Corticosterone as an indicator to determine the presence of inhibition | Cortisol as an indicator to determine the presence of inhibition
COC(=O)C1=C(OC(=O)c2ccnn2[C@H](C)c2ccccc2)CCC1 [Compound A20] | 0 | 0
C[C@H](c1ccccc1)n1nccc1C(=O)OC1CCC1 [Compound A4] | 0 | 0
C=C=CC(C)(C)OC(=O)c1ccnn1[C@H](C)c1ccccc1 [Compound A14] | 0 | 0
C[C@H](c1ccccc1)n1nccc1C(=O)OC1(C)COC1 [Compound A30] | 0 | 0
C=C=CC1(OC(=O)c2cc(F)nn2[C@H](C)c2ccccc2)COC1 [Compound A52] | 0 | 0
CC(=O)C1=C(OC(=O)c2c(F)cnn2[C@H](C)c2ccccc2)CCC1 [Compound A90] | 0 | 0
COC1CC(OC(=O)c2c(F)cnn2C(C)c2ccccc2)C1 (stereo not drawn) [Compound A76] | 0 | 0

Same assay, conditions: H295 cells, 0.1-10000 nM, HPLC-MS/MS; read-out: EC50 (Corticosterone)

Structure (SMILES) | EC50 [nM]
COC(=O)C1=C(OC(=O)c2ccnn2[C@H](C)c2ccccc2)CCC1 [Compound A20] | > 100
COC1CC(OC(=O)c2c(F)cnn2C(C)c2ccccc2)C1 (stereo not drawn) [Compound A76] | > 1000

Same assay, conditions: H295 cells, 0.1-10000 nM, HPLC-MS/MS; read-out: EC50 (Cortisol)

Structure (SMILES) | EC50 [nM]
COC(=O)C1=C(OC(=O)c2ccnn2[C@H](C)c2ccccc2)CCC1 [Compound A20] | > 100
COC1CC(OC(=O)c2c(F)cnn2C(C)c2ccccc2)C1 (stereo not drawn) [Compound A76] | > 1000

Same assay, conditions: Homo sapiens; H295 cells, 0.1-10000 nM, HPLC-MS/MS; read-out: EC50 (Corticosterone)

Structure (SMILES) | EC50 [nM]
C[C@H](c1ccccc1)n1nccc1C(=O)OC1CCC1 [Compound A4] | > 1000
C=C=CC(C)(C)OC(=O)c1ccnn1[C@H](C)c1ccccc1 [Compound A14] | > 1000
C[C@H](c1ccccc1)n1nccc1C(=O)OC1(C)COC1 [Compound A30] | > 1000
C=C=CC1(OC(=O)c2cc(F)nn2[C@H](C)c2ccccc2)COC1 [Compound A52] | > 1000
CC(=O)C1=C(OC(=O)c2c(F)cnn2[C@H](C)c2ccccc2)CCC1 [Compound A90] | > 1000

Same assay, conditions: Homo sapiens; H295 cells, 0.1-10000 nM, HPLC-MS/MS; read-out: EC50 (Cortisol)

Structure (SMILES) | EC50 [nM]
C[C@H](c1ccccc1)n1nccc1C(=O)OC1CCC1 [Compound A4] | > 1000
C=C=CC(C)(C)OC(=O)c1ccnn1[C@H](C)c1ccccc1 [Compound A14] | > 1000
C[C@H](c1ccccc1)n1nccc1C(=O)OC1(C)COC1 [Compound A30] | > 1000
C=C=CC1(OC(=O)c2cc(F)nn2[C@H](C)c2ccccc2)COC1 [Compound A52] | > 1000
CC(=O)C1=C(OC(=O)c2c(F)cnn2[C@H](C)c2ccccc2)CCC1 [Compound A90] | > 1000

System: Sprague-Dawley rats
Experiment: not given
Conditions: LORR maintained for 1 hour, 2 times the MIR
Experimental: Adult male Sprague-Dawley rats with body weight ranging from 250 to 300 gm were selected for continuous infusion test. […] Time to recovery of righting reflex from stopping infusion, and time to fully awake from stopping infusion were recorded.

Structure (SMILES) | Recovery time after stopping infusion [min]
COC(=O)C1=C(OC(=O)c2ccnn2[C@H](C)c2ccccc2)CCC1 [Compound A20] | 12 to 15
C[C@H](c1ccccc1)n1nccc1C(=O)OC1CCC1 [Compound A4] | 14 to 16
C=C=CC(C)(C)OC(=O)c1ccnn1[C@H](C)c1ccccc1 [Compound A14] | 10 to 14
C[C@H](c1ccccc1)n1nccc1C(=O)OC1(C)COC1 [Compound A30] | 8 to 14
C=C=CC1(OC(=O)c2cc(F)nn2[C@H](C)c2ccccc2)COC1 [Compound A52] | 13 to 18
CC(=O)C1=C(OC(=O)c2c(F)cnn2[C@H](C)c2ccccc2)CCC1 [Compound A90] | 2 to 15
COC1CC(OC(=O)c2c(F)cnn2C(C)c2ccccc2)C1 (stereo not drawn) [Compound A76] | 14 to 16

Same assay, conditions: continuous infusion, 2 times the MIR

Structure (SMILES) | Onset time [min]
COC(=O)C1=C(OC(=O)c2ccnn2[C@H](C)c2ccccc2)CCC1 [Compound A20] | 5 to 6
C[C@H](c1ccccc1)n1nccc1C(=O)OC1CCC1 [Compound A4] | 4 to 5
C=C=CC(C)(C)OC(=O)c1ccnn1[C@H](C)c1ccccc1 [Compound A14] | 6 to 7
C[C@H](c1ccccc1)n1nccc1C(=O)OC1(C)COC1 [Compound A30] | 3 to 4
C=C=CC1(OC(=O)c2cc(F)nn2[C@H](C)c2ccccc2)COC1 [Compound A52] | 5 to 6
CC(=O)C1=C(OC(=O)c2c(F)cnn2[C@H](C)c2ccccc2)CCC1 [Compound A90] | 5 to 6
COC1CC(OC(=O)c2c(F)cnn2C(C)c2ccccc2)C1 (stereo not drawn) [Compound A76] | 3 to 4

Same assay, conditions: continuous infusion, (animals affected/animals)

Structure (SMILES) | Types and incidence of adverse reactions
COC(=O)C1=C(OC(=O)c2ccnn2[C@H](C)c2ccccc2)CCC1 [Compound A20] | Tremor(5/6)
C[C@H](c1ccccc1)n1nccc1C(=O)OC1CCC1 [Compound A4] | Tremor(3/6), Tongue; also recorded: stretching(4/6)
C=C=CC(C)(C)OC(=O)c1ccnn1[C@H](C)c1ccccc1 [Compound A14] | Tremor(1/6),
C[C@H](c1ccccc1)n1nccc1C(=O)OC1(C)COC1 [Compound A30] | Tremor(2/6)
C=C=CC1(OC(=O)c2cc(F)nn2[C@H](C)c2ccccc2)COC1 [Compound A52] | Tongue stretching(4/6),; also recorded: Tremor(4/6)
CC(=O)C1=C(OC(=O)c2c(F)cnn2[C@H](C)c2ccccc2)CCC1 [Compound A90] | Tremor(3/6)
COC1CC(OC(=O)c2c(F)cnn2C(C)c2ccccc2)C1 (stereo not drawn) [Compound A76] | Tremor(1/6), Tongue; also recorded: stretching(2/6)
